These results are taken from article PMC11480954, “Molecular determinants of resurgent sodium currents mediated by Navβ4 peptide and A-type FHFs” (Frontiers in Molecular Neuroscience, 2024).

For one assay, the system named is human Nav1.8. Nature of the assay: INaR, Nav1.8 co-expressed with FHF2B. Format: cell-based. The protocol:
(§1) HEK293 cells and ND7/23 cells were grown under standard tissue culture conditions (5% CO2 and 37°C) in DMEM supplemented with 10% FBS, 1% penicillin and 1% streptomycin. Using Invitrogen Lipofectamine 2000, human Nav1.7 R1599P (rpNav1.7) and the mutant constructs were transiently co-transfected with Navβ1 and Navβ2 into HEK293 cells. The constructs human Nav1.8 and mutants were transiently co-transfected with FHF2B or FHF4A into ND7/23 cells. The lipofectamine-DNA mixture was added to the cell culture medium and left for 3 h after which the cells were washed with fresh medium. Cells with green fluorescent protein fluorescence were selected for whole-cell patch-clamp recordings 36–72 h after transfection.
(§2) Whole-cell voltage-clamp recordings were performed at room temperature (~21°C) using an EPC-10 amplifier and the Pulse program (HEKA Electronics). Fire-polished electrodes (0.7–1.0 MΩ) were fabricated from 1.7 mm capillary glass using a P-97 puller (Sutter Instruments), and the tips were coated with sticky wax (KerrLab) to reduce electrode capacitance and enable increased series resistance compensation. The pipette solution contained (in mM) 140 CsF, 1.1 EGTA, 10 NaCl, and 10 HEPES, pH 7.3. The bathing solution was (in mM) 130 mM NaCl, 30 mM TEA chloride, 1 mM MgCl2, 3 mM KCl, 1 mM CaCl2, 10 mM HEPES, and 10 mM d-glucose, pH 7.3 (adjusted with NaOH). […] The offset potential was zeroed before contacting the cell. After establishing the whole-cell recording configuration, the resting potential was held at −120 or −100 mV for 5 min to allow adequate equilibration between the micropipette solution and the cell interior. Linear leak subtraction, based on resistance estimates from four to five hyperpolarizing pulses applied before the depolarizing test potential, was used for all voltage clamp recordings. Membrane currents were usually filtered at 5 kHz and sampled at 20 kHz. […] Voltage errors were minimized using 80–95% series resistance compensation, and the capacitance artifact was canceled using the computer-controlled circuitry of the patch clamp amplifier. […] The concentration-dependent curves were fitted to a hill equation: Y = Bottom + (Top-Bottom)/(1 + 10^((LogEC50-X)*HillSlope)).
(§3) INaR: INaR was elicited by repolarizing voltage steps from +20 to −80 mV for 100 ms (or 200 ms) in −5 mV increments, following a 20-ms depolarizing potential of +30 mV. […] The relative INaR in Nav1.7 and Nav1.8 was calculated by normalizing to the peak transient current elicited at −10 or 0 mV.

Assay [1] concerns the target T1, human Nav1.7 R1599P (rpNav1.7) (Homo sapiens, UniProt Q15858, R1610P).
T1 construct: expressed in transfected cells; host or cells: HEK293 cells, transient transfection with pcDNA3.1 construct
Nature of the assay: Long-term inactivation of rpNav1.7. Format: cell-based.

In assay [2] the test system is Nav1.8 N891S. The assay is described as follows: INaR, Nav1.8 mutant N891S. The assay is classed as cell-based, human. As to conditions: 1 mM FHF4A peptide, + FHF2B, ND7/23; −80 to +20 mV; n = 6. The protocol:
as §1
Whole-cell voltage-clamp recordings were performed at room temperature (~21°C) using an EPC-10 amplifier and the Pulse program (HEKA Electronics). […]
as §3

A further assay deals with Nav1.8. Particulars: n = 6, ref Xiao et al., 2022; cited from earlier work. The source says: Increased INaR may result from destabilizing fast inactivation or increasing “window currents” of VGSCs ([Xiao et al., 2019]).
For assay [3], the system named is Nav1.8 N891S. Nature of the assay: Gating properties, Nav1.8 mutant N891S. The assay is classed as cell-based, human. As to conditions: 1 mM FHF4A peptide. Here is the method:
as §1, §2
Families of sodium currents were induced by 50-ms depolarizing steps to various potentials ranging from −120 (or −100) to +40 mV in 5-mV increments. The conductance was calculated using the equation G(Nav) = I/(V - Vrev) in which I, V, and Vrev represent inward current value, membrane potential, and reversal potential, respectively. […]

[4] abbreviates: Nav1.8 + FHF2B, ND7/23, 1 mM FHF4A peptide.

T1 sequence (Q15858 1-1977 isoform Q15858-3 R1599P): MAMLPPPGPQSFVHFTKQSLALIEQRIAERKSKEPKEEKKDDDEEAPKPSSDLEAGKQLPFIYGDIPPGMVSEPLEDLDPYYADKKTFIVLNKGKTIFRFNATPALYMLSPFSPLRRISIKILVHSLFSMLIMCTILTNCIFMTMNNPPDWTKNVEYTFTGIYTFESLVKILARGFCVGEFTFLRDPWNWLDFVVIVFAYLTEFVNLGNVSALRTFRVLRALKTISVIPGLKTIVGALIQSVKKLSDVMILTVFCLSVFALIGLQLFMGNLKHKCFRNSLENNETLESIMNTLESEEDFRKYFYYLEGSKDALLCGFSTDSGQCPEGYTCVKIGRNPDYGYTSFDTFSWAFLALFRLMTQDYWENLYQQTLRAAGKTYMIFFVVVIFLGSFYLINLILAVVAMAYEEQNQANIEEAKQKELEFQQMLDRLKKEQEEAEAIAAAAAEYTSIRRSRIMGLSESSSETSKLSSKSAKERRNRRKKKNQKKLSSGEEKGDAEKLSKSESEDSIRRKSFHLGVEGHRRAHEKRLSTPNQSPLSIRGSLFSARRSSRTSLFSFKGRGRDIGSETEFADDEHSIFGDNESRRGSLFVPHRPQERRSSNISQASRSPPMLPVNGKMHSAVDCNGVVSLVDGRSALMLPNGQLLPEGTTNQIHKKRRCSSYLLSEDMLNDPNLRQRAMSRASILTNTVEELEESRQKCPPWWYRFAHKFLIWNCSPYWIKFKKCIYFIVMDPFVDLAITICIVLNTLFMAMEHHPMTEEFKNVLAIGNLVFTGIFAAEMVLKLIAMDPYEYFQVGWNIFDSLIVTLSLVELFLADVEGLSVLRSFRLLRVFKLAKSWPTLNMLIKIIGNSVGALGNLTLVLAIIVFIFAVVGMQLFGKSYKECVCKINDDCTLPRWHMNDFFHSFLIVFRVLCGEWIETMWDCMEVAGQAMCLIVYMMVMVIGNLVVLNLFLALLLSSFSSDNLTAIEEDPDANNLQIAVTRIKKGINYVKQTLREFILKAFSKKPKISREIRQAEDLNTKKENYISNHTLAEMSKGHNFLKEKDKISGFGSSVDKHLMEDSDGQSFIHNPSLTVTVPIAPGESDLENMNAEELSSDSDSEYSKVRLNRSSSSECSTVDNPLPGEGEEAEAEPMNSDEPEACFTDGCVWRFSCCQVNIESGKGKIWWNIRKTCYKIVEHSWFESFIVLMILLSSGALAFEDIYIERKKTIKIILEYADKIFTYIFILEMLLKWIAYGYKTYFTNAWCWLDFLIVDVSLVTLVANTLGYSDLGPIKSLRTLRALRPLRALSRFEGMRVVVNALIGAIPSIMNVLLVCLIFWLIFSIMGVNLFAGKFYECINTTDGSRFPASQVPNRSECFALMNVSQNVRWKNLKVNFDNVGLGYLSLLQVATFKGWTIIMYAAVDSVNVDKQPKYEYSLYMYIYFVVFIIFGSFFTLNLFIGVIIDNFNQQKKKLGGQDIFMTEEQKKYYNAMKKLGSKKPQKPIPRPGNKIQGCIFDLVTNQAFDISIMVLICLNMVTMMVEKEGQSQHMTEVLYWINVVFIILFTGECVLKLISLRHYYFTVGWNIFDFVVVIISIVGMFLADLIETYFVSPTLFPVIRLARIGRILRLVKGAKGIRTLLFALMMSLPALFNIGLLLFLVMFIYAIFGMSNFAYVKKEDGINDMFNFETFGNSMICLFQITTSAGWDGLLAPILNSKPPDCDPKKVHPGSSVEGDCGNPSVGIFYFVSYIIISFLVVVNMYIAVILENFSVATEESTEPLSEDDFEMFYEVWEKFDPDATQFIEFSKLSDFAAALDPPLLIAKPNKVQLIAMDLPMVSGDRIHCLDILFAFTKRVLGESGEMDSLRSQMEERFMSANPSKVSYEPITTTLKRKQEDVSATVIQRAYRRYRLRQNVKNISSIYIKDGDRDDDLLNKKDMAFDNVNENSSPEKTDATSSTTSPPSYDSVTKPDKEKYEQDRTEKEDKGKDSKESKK
T1 sequence (Q07699 19-218 partner): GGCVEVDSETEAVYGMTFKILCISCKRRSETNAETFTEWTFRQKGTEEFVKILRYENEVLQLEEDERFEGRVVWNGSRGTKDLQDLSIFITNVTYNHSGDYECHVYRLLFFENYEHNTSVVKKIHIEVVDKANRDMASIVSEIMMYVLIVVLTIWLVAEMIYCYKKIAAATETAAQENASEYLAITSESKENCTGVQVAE
T1 sequence (O60939 30-215 partner): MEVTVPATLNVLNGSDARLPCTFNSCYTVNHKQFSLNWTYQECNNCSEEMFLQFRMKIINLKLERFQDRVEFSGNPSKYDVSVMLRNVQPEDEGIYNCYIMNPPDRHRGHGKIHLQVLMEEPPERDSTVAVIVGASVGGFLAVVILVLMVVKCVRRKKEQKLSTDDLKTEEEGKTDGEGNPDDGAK

Turning to “AAAIASGLIRQKRQAREQHW [FHF4A peptide, synthetic 20-residue peptide from FHF4A A2 – W21]”, the “average FHF4A peptide mediated INaR amplitude (peak, −15 mV), Nav1.8” value in the assay with human Nav1.8 (Nav1.8 + FHF2B, ND7/23, 500 nM TTX, 1 mM peptide intracellular, measured after 20 ms into repolarization, mean ± S.E., n = 9) is reported as 4.8% ± 0.5%. For the same sequence, in the assay with human Nav1.8 (setting [4]), the “potential at which INaR peaked” value is −15 mV and the “range of voltages at which INaR observed” value is given as −40 to +20 mV. The “saturation of effect on INaR” value in the assay with human Nav1.8 (concentration-dependent curve, 1 mM) is on record as “did not saturate at 1 mM”. The “effect on long-term inactivation of rpNav1.7” value in assay [1] (1 mM FHF4A peptide, HEK293) is “evidently enhanced accumulation of long-term inactivation of rpNav1.7”. Moreover, in assay [1] (rpNav1.7, HEK293, 1 mM, six 16-ms pulses of −10 mV from −100 mV, 40-ms interpulse, scramble n = 6, FHF4A peptide n = 5, p < 0.0001), the “fraction of the current elicited at the 6th pulse” value stood at 0.21 ± 0.03. For the same sequence, in the assay with Nav1.8 N891S [2], the “INaR, N891S” value was “no INaR was induced”. Moreover, the “FHF4A peptide mediated Nav1.8 INaR without FHF2B (control)” value in the assay on Nav1.8 was 2.5% ± 0.4%. Moreover, the “steady-state activation or inactivation, N891S vs Nav1.8” value in the assay on Nav1.8 N891S [3] is “no effect on steady-state activation or inactivation”. In the assay on Nav1.8 N891S [3] (+ FHF2B, ND7/23, n = 6), the “Activation (V1/2), N891S” value was −8.6 ± 2.1 (6) mV and the “Inactivation (V1/2), N891S” value is −36.4 ± 0.7 (6) mV. The “INaP, N891S” value in the assay with Nav1.8 N891S [3] (end of 50-ms pulse of +10 mV, normalized to peak transient current, n = 6, ***p < 0.0001) is recorded as 1.1 ± 0.5^*** (6) %.
